Data published in US20200390100A1, “SUBSTITUTED N-HETEROCYCLYL- AND N-HETEROARYL-TETRAHYDROPYRIMIDINONES AND THE SALTS THEREOF, AND THE USE OF SAME AS HERBICIDAL ACTIVE SUBSTANCES” (Bayer Aktiengesellschaft, priority 2017, published 2020).
Where two headings read alike, the source gives them in different places.

Columns and labels:
Matricaria inodora [1] = test: Post-emergence herbicidal action, greenhouse, 320 g/ha; format: in vivo; conditions: application rate 320 g/ha, rated visually after about 3 weeks vs untreated controls
Experimental: (§1) Seeds of monocotyledonous and dicotyledonous weeds and crop plants were placed in sandy loam in plastic or wood-fiber pots, covered with soil and cultivated in a greenhouse under controlled growth conditions. 2 to 3 weeks after sowing, the test plants were treated at the one-leaf stage. The compounds of the invention, formulated in the form of wettable powders (WP) or as emulsion concentrates (EC), were then sprayed onto the green parts of the plants as aqueous suspension or emulsion with addition of 0.5% additive at a water application rate of […] (converted). After the test plants had been kept in the greenhouse under optimum growth conditions for about 3 weeks, the activity of the preparations was rated visually in comparison to untreated controls. For example, 100% activity=the plants have died, 0% activity=like control plants. Tables A1 to A14 below show the effects of selected compounds of the general formula (I) according to Tables 1.1 to 1.150 on various harmful plants and at an application rate corresponding to 320 g/ha, which were obtained by the experimental procedure mentioned above.

Stellaria media [2] = test: as above; format: in vivo; conditions: application rate 320 g/ha, rated visually after about 3 weeks vs untreated controls
Experimental: as §1

Abutilon theophrasti [3] = test: as above; format: in vivo; conditions: application rate 320 g/ha, rated visually after about 3 weeks vs untreated controls
Experimental: as §1

Amaranthus retroflexus [4] = test: as above; format: in vivo; conditions: application rate 320 g/ha, rated visually after about 3 weeks vs untreated controls
Experimental: as §1

Viola tricolor [5] = test: as above; format: in vivo; conditions: application rate 320 g/ha, rated visually after about 3 weeks vs untreated controls
Experimental: as §1

Setaria viridis [6] = test: as above; format: in vivo; conditions: application rate 320 g/ha, rated visually after about 3 weeks vs untreated controls
Experimental: as §1

photosystem II (PS II) = target: T1, photosystem II (PS II) (Spinacia oleracea, UniProt P69560); test: Measurement of PS II activity in thylakoid membranes (DCPIP reduction); format: biochemical, spinach; conditions: read-out: Effect
T1 construct: the chloroplasts were osmotically ruptured and the thylakoid membranes were then obtained by centrifugation; from tissue; host or cells: fresh spinach leaves; thylakoid membrane preparation from isolated chloroplasts
Experimental: Cooled fresh spinach leaves were comminuted and homogenized in 50 mM phosphate buffer, pH 6.8. 10 mM KCl, 0.34 M sucrose (sucrose buffer) (blender, 1 g of plant material/ml). The homogenate was subsequently filtered through 4 layers of Miracloth and the chloroplasts were isolated by centrifugation, i.e. 10 min of centrifugation at 4400×g (4° C.). The sediment was suspended in 25 ml of sucrose buffer and re-centrifuged for 10 min at 4400×g (4° C.). The sediment was then suspended in 40 ml of 50 mM phosphate buffer, pH 6.8, 10 mM KCl, without sucrose. In this step, the chloroplasts were osmotically ruptured and the thylakoid membranes were then obtained by centrifugation (10 min, 4400×g, 4° C.). The membrane sediment was finally suspended in about 20 ml of 50 mM phosphate buffer, pH 6.8, 10 mM KCl. Following protein determination and activity determination, the membrane suspension was divided into aliquots and frozen in liquid nitrogen. The aliquots were stored at −80° C. Under these conditions, the photosystem II preparation was storage stable for at least three months. The activity determination of photosystem II (PS II) was then carried out using the following test principle: The electron transfer from PS II to an artificial electron acceptor, 2,6-dichlorophenolindophenol (DCPIP), was measured with exposure to light. The concentration of the blue oxidized form of DCPIP was determined spectrophotometrically at wavelength λ=595 nm. […] The activity determination is carried out in microtiter plates (96 cavities) in a reaction volume of 200 μl. Here, 155 μl of dilute membrane suspension were initially charged in 50 mM of phosphate buffer, pH 6.8, 10 mM KCl. Depending on the activity of the PS II preparation, the dilution was adjusted such that the measurement of the decrease in absorption (λ=595 nm) was linear for at least 10 min. In each case 5 μl solutions of the test compounds of a concentration of 100 μM in DMSO were added to the enzyme suspension; controls contained 5 μl of DMSO; the final concentration of DMSO in the reaction batch was thus 2.5% (v/v); this concentration had no adverse effect on the enzymatic activity. On each microtiter plate, a known PS II inhibitor, for example metribuzin, was used as standard, which allowed the quality of the PS II test to be assessed. The reaction was started by addition of 40 μl DCPIP solution (600 μM in distilled water); the final concentration of DCPIP was 120 μM. Measurement of absorption is carried out over a period of 10 min at 22° C. and with exposure to light. Using metribuzin as comparative substance, the results for the efficacy of the compounds of the general formula (I) at 100 μM are stated in the table below using the following classification: ++++(inhibition≥90%), +++(90%>inhibition≥70%), ++(70%>inhibition≥50%), +(50%>inhibition≥30%).

Echinochloa crus-galli = test: Herbicidal pre-emergence action (Part 2), 1280 g/ha; format: in vivo; conditions: application rate 1280 g/ha, scored visually after about 3 weeks, Table D1
From the text: (§2) Seeds of mono- and dicotyledonous weed plants were placed in plastic pots in sandy loam soil (doubly sown with in each case one species of mono- or dicotyledonous weed plants per pot) and covered with soil. The compounds of the invention, formulated in the form of wettable powders (WP) or as emulsion concentrates (EC), were then applied onto the surface of the covering soil as aqueous suspension or emulsion with addition of 0.5% additive at a water application rate of 600 liters per hectare (converted). After the treatment, the pots were placed in a greenhouse and kept under good growth conditions for the test plants. After about 3 weeks, the effect of the preparations was scored visually in comparison with untreated controls as percentages. For example, 100% activity=the plants have died, 0% activity=like control plants. Tables D1 to D8 below show the effects of selected compounds of the general formula (I) according to Tables 1.1 to 1.150 on various harmful plants and at an application rate corresponding to 1280 g/ha, which were obtained by the experimental procedure mentioned above.

Matricaria inodora [7] = test: Pre-emergence herbicidal action, greenhouse, 320 g/ha; format: in vivo; conditions: application rate 320 g/ha, scored visually after about 3 weeks vs untreated controls
From the text: (§3) Seeds of monocotyledonous and dicotyledonous weed plants and crop plants were placed in plastic or organic planting pots and covered with soil. The compounds of the invention, formulated in the form of wettable powders (WP) or as emulsion concentrates (EC), were then applied to the surface of the covering soil as aqueous suspension or emulsion with addition of 0.5% additive at a water application rate equivalent to […]. After the treatment, the pots were placed in a greenhouse and kept under good growth conditions for the test plants. After about 3 weeks, the effect of the preparations is scored visually in comparison with untreated controls as percentages. For example, 100% activity=the plants have died, 0% activity=like control plants. Tables B1 to B14 below show the effects of selected compounds of the general formula (I) according to Tables I.1 to I.150 on various harmful plants and at an application rate corresponding to 320 g/ha, which were obtained by the experimental procedure mentioned above.

Digitaria sanguinalis = test: as above; format: in vivo; conditions: application rate 320 g/ha, Table B9
From the text: as §3

Stellaria media [8] = test: as above; format: in vivo; conditions: application rate 320 g/ha, scored visually after about 3 weeks vs untreated controls
From the text: as §3

Amaranthus retroflexus [9] = test: as above; format: in vivo; conditions: application rate 320 g/ha, scored visually after about 3 weeks vs untreated controls
From the text: as §3

Alopecurus myosuroides = test: as above; format: in vivo; conditions: application rate 320 g/ha, scored visually after about 3 weeks vs untreated controls
From the text: as §3

Viola tricolor [10] = test: as above; format: in vivo; conditions: application rate 320 g/ha, Table B8
From the text: as §3

Veronica persica = test: as above; format: in vivo; conditions: application rate 320 g/ha, Table B13
From the text: as §3

Pharbitis purpurea [11] = test: as above; format: in vivo; conditions: application rate 320 g/ha, Table B12
From the text: as §3

Polygonum convolvulus [12] = test: as above; format: in vivo; conditions: application rate 320 g/ha, scored visually after about 3 weeks vs untreated controls
From the text: as §3

Amaranthus retroflexus [13] = test: Herbicidal post-emergence action (Part 2), 1280 g/ha; format: in vivo; conditions: application rate 1280 g/ha, rated visually after about 3 weeks, Table C5
Experimental: (§4) Seeds of mono- and dicotyledonous weed plants were placed in plastic pots in sandy loam soil (doubly sown with in each case one species of mono- or dicotyledonous weed plants per pot), covered with soil and cultivated in a greenhouse under controlled growth conditions. 2 to 3 weeks after sowing, the test plants were treated at the one-leaf stage. The compounds of the invention, formulated in the form of wettable powders (WP) or as emulsion concentrates (EC), were applied onto the green parts of the plants as aqueous suspension or emulsion with addition of 0.5% additive at a water application rate of 600 liters per hectare (converted). After the test plants had been kept in the greenhouse under optimum growth conditions for about 3 weeks, the activity of the preparations was rated visually in comparison to untreated controls. For example, 100% activity=the plants have died, 0% activity=like control plants. Tables C1 to C7 below show the effects of selected compounds of the general formula (I) according to Tables 1.1 to 1.150 on various harmful plants and at an application rate corresponding to 1280 g/ha, which were obtained by the experimental procedure mentioned above.

Poa annua [14] = test: as above; format: in vivo; conditions: application rate 1280 g/ha, rated visually after about 3 weeks, Table C2
Experimental: as §4

Matricaria inodora [15] = test: Herbicidal pre-emergence action (Part 2), 1280 g/ha; format: in vivo; conditions: application rate 1280 g/ha, scored visually after about 3 weeks, Table D7
From the text: as §2

Abutilon theophrasti [16] = test: as above; format: in vivo; conditions: application rate 1280 g/ha, scored visually after about 3 weeks, Table D5
From the text: as §2

Poa annua [17] = test: as above; format: in vivo; conditions: application rate 1280 g/ha, scored visually after about 3 weeks, Table D3
From the text: as §2

Pharbitis purpurea [18] = test: Post-emergence herbicidal action, greenhouse, 320 g/ha; format: in vivo; conditions: application rate 320 g/ha, rated visually after about 3 weeks vs untreated controls
Experimental: as §1

Polygonum convolvulus [19] = test: as above; format: in vivo; conditions: application rate 320 g/ha, rated visually after about 3 weeks vs untreated controls
Experimental: as §1

Hordeum murinum = test: Pre-emergence herbicidal action, greenhouse, 320 g/ha; format: in vivo; conditions: application rate 320 g/ha, Table B14
From the text: as §3

Abutilon theophrasti [20] = test: as above; format: in vivo; conditions: application rate 320 g/ha, scored visually after about 3 weeks vs untreated controls
From the text: as §3

Avena fatua = test: as above; format: in vivo; conditions: application rate 320 g/ha, scored visually after about 3 weeks vs untreated controls
From the text: as §3

Setaria viridis [21] = test: as above; format: in vivo; conditions: application rate 320 g/ha, Table B11
From the text: as §3

[22] = PS II activity in spinach thylakoid membranes, Table E1

inhibition at 100 µM (photosystem II (PS II); [22]) [%]	Compound	Matricaria inodora (efficacy in %) (Matricaria inodora [1]) [%]	Stellaria media (efficacy in %) (Stellaria media [2]) [%]	Abutilon theophrasti (efficacy in %) (Abutilon theophrasti [3]) [%]	Amaranthus retroflexus (efficacy in %) (Amaranthus retroflexus [4]) [%]	Setaria viridis (efficacy in %) (Setaria viridis [6]) [%]	Matricaria inodora (efficacy in %) (Matricaria inodora [7]) [%]	Digitaria sanguinalis (efficacy in %) (Digitaria sanguinalis) [%]	Stellaria media (efficacy in %) (Stellaria media [8]) [%]	Amaranthus retroflexus (efficacy in %) (Amaranthus retroflexus [9]) [%]	Alopecurus myosuroides (efficacy in %) (Alopecurus myosuroides) [%]	Viola tricolor (efficacy in %) (Viola tricolor [10]) [%]	Pharbitis purpurea (efficacy in %) (Pharbitis purpurea [11]) [%]	Polygonum convolvulus (efficacy in %) (Polygonum convolvulus [12]) [%]	also measured
> 90	CN1CCC(O)N(c2cc(C(C)(C)C)no2)C1=O (centres unmarked) [I.1-290, 3-(3-tert-Butyl-1,2-oxazol-5-yl)-4-hydroxy-1-methyltetrahydropyrimidin-2(1H)-one]														Echinochloa crus-galli (Echinochloa crus-galli): 90%
50 to 70	CN1CCC(O)N(c2cc(C(F)(F)F)ccn2)C1=O (centres unmarked) [I.1-449, 4-Hydroxy-1-methyl-3-[4-(trifluoromethyl)pyridin-2-yl]tetrahydropyrimidin-2(1H)-one]						80	100	100	100	100	100	100	100	Veronica persica (efficacy in %) (Veronica persica): 80%
70 to 90	CN1CC(C)(C)C(O)N(c2cc(C(C)(C)C)on2)C1=O (centres unmarked) [I.61-162, 1-(5-tert-Butyl-1,2-oxazol-3-yl)-6-hydroxy-3,5,5-trimethyltetrahydropyrimidin-2(1H)-one]														Amaranthus retroflexus (Amaranthus retroflexus [13]): 100%; Poa Annua (Poa annua [14]): 90%; Matricaria inodora (Matricaria inodora [15]): 90%; Abutilon theophrasti (Abutilon theophrasti [16]): 100%; Poa Annua (Poa annua [17]): 100%

Second part, the molecule before the results:

Compound	inhibition at 100 µM (photosystem II (PS II); [22]) [%]	Matricaria inodora (efficacy in %) (Matricaria inodora [1]) [%]	Stellaria media (efficacy in %) (Stellaria media [2]) [%]	Abutilon theophrasti (efficacy in %) (Abutilon theophrasti [3]) [%]	Amaranthus retroflexus (efficacy in %) (Amaranthus retroflexus [4]) [%]	Setaria viridis (efficacy in %) (Setaria viridis [6]) [%]	Matricaria inodora (efficacy in %) (Matricaria inodora [7]) [%]	Digitaria sanguinalis (efficacy in %) (Digitaria sanguinalis) [%]	Stellaria media (efficacy in %) (Stellaria media [8]) [%]	Amaranthus retroflexus (efficacy in %) (Amaranthus retroflexus [9]) [%]	Alopecurus myosuroides (efficacy in %) (Alopecurus myosuroides) [%]	Viola tricolor (efficacy in %) (Viola tricolor [10]) [%]	Pharbitis purpurea (efficacy in %) (Pharbitis purpurea [11]) [%]	Polygonum convolvulus (efficacy in %) (Polygonum convolvulus [12]) [%]	also measured
CC(=O)OC1CC(C)N(C)C(=O)N1c1cc(C(C)(C)C)on1 (single isomer, unassigned) [I.42-162_a]		100	100	100	100	80									Viola tricolor (efficacy in %) (Viola tricolor [5]): 100%
CC(=O)OC1CC2CCCN2C(=O)N1c1cc(C(C)(C)C)on1 (centres unmarked) [I.122-162]		90	80	100	90	80	100	100	100	90	90	100	100	100	Pharbitis purpurea (efficacy in %) (Pharbitis purpurea [18]): 80%; Polygonum convolvulus (efficacy in %) (Polygonum convolvulus [19]): 90%; Hordeum murinum (efficacy in %) (Hordeum murinum): 100%; Abutilon theophrasti (efficacy in %) (Abutilon theophrasti [20]): 100%; Avena fatua (efficacy in %) (Avena fatua): 80%; Setaria viridis (efficacy in %) (Setaria viridis [21]): 100%
CSc1nnc(C(C)(C)C)c(=O)n1N [Metribuzin, metribuzin, reference compound]															inhibition at 100 µM (photosystem II (PS II)): > 90%
